Where only a bound is given, the exact number is not on record here.

We go through ten compounds from patent US5498780A, “Platinum complex and malignant tumor treating drug containing the same” (SS Pharmaceutical Co., Ltd., priority 1994, dated 1996).

Data set [1] concerns murine L1210 leukemia cell. In words: Antitumor effect on murine L1210 leukemia cell (increase in life-span of inoculated mice). Conditions: for ILSmax (maximum percent increase in life-span) / ILS50 (dose which shows 50% of the ILS value by 5 administrations) / dose corresponding to ILSmax: L1210, i.p. once a day for 5 days; for ILSmax (maximum percent increase in life-span): 30 days observation; for ILS50 (dose which shows 50% of the ILS value by 5 administrations): linear regression; for TI (therapeutic index, LD50 value/ILS50 value): L1210. The data set is classed as in vivo, murine; male CDF1 mice. As for the experimental part:
(§1) Murine L1210 leukemia cells (1×10^5 cells) were inoculated peritoneally into six-week-old male CDF1 mice on day 0. From the next day after the inoculation, a drug (the compound of the invention or a compound for comparison) was administered peritoneally once a day for 5 days. After 30 days of observation, the percent increase in life-span (ILS) was calculated as follows: […]
(§2) T: mean survival days of the drug-treated group
(§3) C: mean survival days of control group
(§4) In these tables, ILSmax means maximum ILS value (%), and corresponding dose (mg/kg) is Shown in parenthesis.

The subject of data set [2] is cisplatin-resistant murine L1210 leukemia cell (L1210/DDP). Briefly: Antitumor effect on cisplatin-resistant murine L1210 leukemia cell (L1210/DDP). The data set is classed as in vivo, murine; male CDF1 mice. As to conditions: for ILSmax (maximum percent increase in life-span) / dose corresponding to ILSmax / ILS50 (dose which shows 50% of the ILS value by 5 administrations): i.p. once a day for 5 days; for ILSmax (maximum percent increase in life-span): 30 days observation; for ILS50 (dose which shows 50% of the ILS value by 5 administrations): linear regression. How it is done:
as §1, §2, §3
In these tables, ILSmax means maximum ILS value (%), and corresponding dose (mg/kg) is Shown in parenthesis. In this test, cisplatin and carboplatin were respectively tested in each test lot for accurate comparison.
Antitumor effect on cisplatin-resistant murine L1210 leukemia cell (L1210/DDP):
The test of Test Example 1 was repeated except that cisplatin-resistant murine L1210 leukemia cell (L1210/DDP) was used instead of murine L1210 leukemia cell.

For data set [3], the system named is murine P388 leukemia cell. Briefly: Antitumor effect on murine P388 leukemia cell. The data set is classed as in vivo, murine; male CDF1 mice. As to conditions: for ILSmax (maximum percent increase in life-span) / ILS50 (dose which shows 50% of the ILS value by 5 administrations) / dose corresponding to ILSmax: P388, i.p. once a day for 5 days; for ILSmax (maximum percent increase in life-span): 30 days observation; for ILS50 (dose which shows 50% of the ILS value by 5 administrations): linear regression; for TI (therapeutic index, LD50 value/ILS50 value): P388. How it is done: as §1, §2, §3, §4
Antitumor effect on murine P388 leukemia cell:
The test of Test Example 1 was repeated except that 1×10^6 of murine P388 leukemia cells were used instead of 1×10^5 of murine L1210 leukemia cells.

Data set [4] is described as follows: 50% lethal dose by single peritoneal administration, obtained at the time of the dose setting. The data set is classed as in vivo, CDF1 mice.
Text: as §4

Turning to `N.N.O=C([O-])C1(C(=O)[O-])CCC1.[Pt+2]` [Carboplatin, carboplatin, reference compound], the “ILSmax (maximum percent increase in life-span)” value in data set [1] (Table 4 test lot) is given as 50.6%; in data set [1] (Table 5 test lot), 72.5%; in data set [2] (Table 6 test lot) it was 8.5%; in data set [2] (Table 7 test lot), 14.3%; in data set [3] (Table 8 test lot) it was 73.1%; in data set [3] (Table 9 test lot) it was 79.8%. Besides, in data set [3] (Table 10 test lot), the “ILSmax (maximum percent increase in life-span)” value came to 57.3%. The “ILS50 (dose which shows 50% of the ILS value by 5 administrations)” value is recorded as 41.0 mg/kg in data set [1] (Table 4 test lot); 33.9 mg/kg in data set [1] (Table 5 test lot); 10.5 mg/kg in data set [3] (Table 8 test lot); 12.1 mg/kg in data set [3] (Table 9 test lot); 13.8 mg/kg in data set [3] (Table 10 test lot). Further, the “dose corresponding to ILSmax” value in data set [1] (Table 4 test lot) was 64.0 mg/kg; in data set [1] (Table 5 test lot) it was 64.0 mg/kg; in data set [2] (Table 6 test lot), 16.0 mg/kg; in data set [2] (Table 7 test lot), 64.0 mg/kg; in data set [3] (Table 8 test lot), 16.0 mg/kg; in data set [3] (Table 9 test lot), 32.0 mg/kg. The “dose corresponding to ILSmax” value in data set [3] (Table 10 test lot) is given as 32.0 mg/kg. The “TI (therapeutic index, LD50 value/ILS50 value)” value is 6.0 in data set [1] (Table 4 test lot); 7.2 in data set [1] (Table 5 test lot); 23.3 in data set [3] (Table 8 test lot); 20.2 in data set [3] (Table 9 test lot); 17.8 in data set [3] (Table 10 test lot). In addition, the “LD50 (50% lethal dose)” value in data set [4] was 245.0 mg/kg.
`N.N.[Cl][Pt][Cl]` [Cisplatin, cisplatin, reference compound]: the “ILSmax (maximum percent increase in life-span)” value is reported as 88.2% in data set [1] (Table 4 test lot); 90.0% in data set [1] (Table 5 test lot); 0.9% in data set [2] (Table 6 test lot); 5.1% in data set [2] (Table 7 test lot); more than 120.4% in data set [3] (Table 8 test lot); more than 156.7% in data set [3] (Table 9 test lot). The “ILSmax (maximum percent increase in life-span)” value in data set [3] (Table 10 test lot) is more than 120.9%. In addition, the “ILS50 (dose which shows 50% of the ILS value by 5 administrations)” value is reported as 1.3 mg/kg in data set [1] (Table 4 test lot); 1.1 mg/kg in data set [1] (Table 5 test lot); less than 0.5 mg/kg in data set [3] (Table 8 test lot); less than 0.5 mg/kg in data set [3] (Table 9 test lot); less than 0.5 mg/kg in data set [3] (Table 10 test lot). The “dose corresponding to ILSmax” value in data set [1] (Table 4 test lot), in data set [1] (Table 5 test lot), in data set [2] (Table 6 test lot), in data set [2] (Table 7 test lot), in data set [3] (Table 8 test lot) and in data set [3] (Table 9 test lot) was 4.0 mg/kg each time. Also, the “dose corresponding to ILSmax” value in data set [3] (Table 10 test lot) is 4.0 mg/kg.
Turning to `N.NC1CCCCC1.[Cl][Pt][Cl]` [Comparative drug A, cis-dichloroammine cyclohexylamineplatinum(II), reference compound], in data set [1] (Table 4 test lot), the “ILSmax (maximum percent increase in life-span)” value is 97.6%; the “ILS50 (dose which shows 50% of the ILS value by 5 administrations)” value is less than 1.0 mg/kg; the “dose corresponding to ILSmax” value stood at 8.0 mg/kg; the “TI (therapeutic index, LD50 value/ILS50 value)” value is reported as more than 31.3. Besides, in data set [2] (Table 6 test lot), the “TI (therapeutic index, LD50 value/ILS50 value)” value was more than 31.3; the “ILSmax (maximum percent increase in life-span)” value is recorded as more than 157.5%; the “dose corresponding to ILSmax” value was 1.0 mg/kg; the “ILS50 (dose which shows 50% of the ILS value by 5 administrations)” value was less than 1.0 mg/kg. In addition, in data set [3] (Table 8 test lot), the “ILSmax (maximum percent increase in life-span)” value was determined as 101.9%; the “ILS50 (dose which shows 50% of the ILS value by 5 administrations)” value is on record as less than 1.0 mg/kg; the “dose corresponding to ILSmax” value is given as 4.0 mg/kg; the “TI (therapeutic index, LD50 value/ILS50 value)” value was more than 31.3. In data set [4], the “LD50 (50% lethal dose)” value is recorded as 31.3 mg/kg.
Consider `CNO.N.[Cl][Pt][Cl]` [Compound No. 1, cis-dichloroammine (N-methylhydroxylamine)platinum(II)], for which, in data set [3] (Table 8 test lot), the “ILSmax (maximum percent increase in life-span)” value was more than 136.1%; the “ILS50 (dose which shows 50% of the ILS value by 5 administrations)” value is on record as less than 0.5 mg/kg; the “dose corresponding to ILSmax” value turned out to be 4.0 mg/kg; the “TI (therapeutic index, LD50 value/ILS50 value)” value is listed as more than 31.2. Moreover, the “LD50 (50% lethal dose)” value in data set [4] came to 15.6 mg/kg.
`CON.N.[Cl][Pt][Cl]` [Compound No. 2, cis-dichloroammine (O-methylhydroxylamine)platinum(II)]: in data set [3] (Table 8 test lot), the “ILSmax (maximum percent increase in life-span)” value was found to be 126.9%; the “ILS50 (dose which shows 50% of the ILS value by 5 administrations)” value is reported as less than 0.5 mg/kg; the “dose corresponding to ILSmax” value is 4.0 mg/kg; the “TI (therapeutic index, LD50 value/ILS50 value)” value is given as more than 44.2. The “LD50 (50% lethal dose)” value in data set [4] is 22.1 mg/kg.
For `N.ONC1CCCCC1.[Cl][Pt][Cl]` [Compound No. 4, cis-dichloroammine (N-cyclohexylhydroxylamine)platinum(II)], in data set [1] (Table 4 test lot), the “ILSmax (maximum percent increase in life-span)” value is more than 120.0%; the “ILS50 (dose which shows 50% of the ILS value by 5 administrations)” value is reported as 2.1 mg/kg; the “dose corresponding to ILSmax” value is given as 8.0 mg/kg; the “TI (therapeutic index, LD50 value/ILS50 value)” value came to 42.0. In data set [2] (Table 6 test lot), the “TI (therapeutic index, LD50 value/ILS50 value)” value is on record as more than 88.2; the “ILSmax (maximum percent increase in life-span)” value is listed as more than 183.0%; the “dose corresponding to ILSmax” value is given as 2.0 mg/kg; the “ILS50 (dose which shows 50% of the ILS value by 5 administrations)” value is given as less than 1.0 mg/kg. Also, in data set [3] (Table 8 test lot), the “ILSmax (maximum percent increase in life-span)” value is 108.3%; the “ILS50 (dose which shows 50% of the ILS value by 5 administrations)” value is reported as 1.1 mg/kg; the “dose corresponding to ILSmax” value was found to be 16.0 mg/kg; the “TI (therapeutic index, LD50 value/ILS50 value)” value is 80.2. Besides, the “LD50 (50% lethal dose)” value in data set [4] was 88.2 mg/kg.
For `CCO[NH][Pt]([Cl])([Cl])[NH]C(C)C` [Compound No. 12, cis-dichloro(isopropylamine) (O-ethylhydroxylamine)platinum(II)], in data set [1] (Table 5 test lot), the “ILSmax (maximum percent increase in life-span)” value is listed as 102.5%; the “ILS50 (dose which shows 50% of the ILS value by 5 administrations)” value is given as 1.5 mg/kg; the “dose corresponding to ILSmax” value is listed as 8.0 mg/kg; the “TI (therapeutic index, LD50 value/ILS50 value)” value was 14.7. In data set [2] (Table 7 test lot), the “TI (therapeutic index, LD50 value/ILS50 value)” value is given as more than 22.1; the “ILSmax (maximum percent increase in life-span)” value is on record as more than 206.1%; the “dose corresponding to ILSmax” value was 2.0 mg/kg; the “ILS50 (dose which shows 50% of the ILS value by 5 administrations)” value is recorded as less than 1.0 mg/kg. In data set [4], the “LD50 (50% lethal dose)” value stood at 22.1 mg/kg.
Regarding `CCON.N.O=C1[O][Pt][O]C(=O)C12CCC2` [Compound No. 15, (1,1-cyclobutane dicarboxylate)ammine (O-ethylhydroxylamine)platinum(II)], in data set [3] (Table 10 test lot), the “ILSmax (maximum percent increase in life-span)” value is on record as 93.6%; the “ILS50 (dose which shows 50% of the ILS value by 5 administrations)” value amounted to 8.2 mg/kg; the “dose corresponding to ILSmax” value amounted to 32.0 mg/kg; the “TI (therapeutic index, LD50 value/ILS50 value)” value amounted to 21.6. Also, the “LD50 (50% lethal dose)” value in data set [4] is reported as 176.8 mg/kg.
With `CCCO[NH][Pt]1([NH2])[O]C(=O)C2(CCC2)C(=O)[O]1` [Compound No. 16, (1,1-cyclobutane dicarboxylate)ammine (O-propylhydroxylamine)platinum(II)], in data set [3] (Table 10 test lot), the “ILSmax (maximum percent increase in life-span)” value is listed as 72.7%; the “ILS50 (dose which shows 50% of the ILS value by 5 administrations)” value worked out at 8.2 mg/kg; the “dose corresponding to ILSmax” value came out at 8.0 mg/kg; the “TI (therapeutic index, LD50 value/ILS50 value)” value is given as 21.6. Moreover, in data set [4], the “LD50 (50% lethal dose)” value worked out at 176.8 mg/kg.
Take `CC(C)(C)O[NH][Pt]1([NH2])[O]C(=O)C2(CCC2)C(=O)[O]1` [Compound No. 17, (1,1-cyclobutane dicarboxylate)ammine (O-tert-butylhydroxylamine)platinum(II)]: in data set [3] (Table 10 test lot), the “ILSmax (maximum percent increase in life-span)” value came out at 72.7%; the “ILS50 (dose which shows 50% of the ILS value by 5 administrations)” value was determined as 12.4 mg/kg; the “dose corresponding to ILSmax” value is reported as 32.0 mg/kg; the “TI (therapeutic index, LD50 value/ILS50 value)” value came to 20.2. Besides, in data set [4], the “LD50 (50% lethal dose)” value is on record as 250.0 mg/kg.
